pEC50: −log10 of the molar value.
Legend:
human GLP-1-R = target: T1, human GLP-1-R (Homo sapiens, UniProt P43220); experiment: GLP-1 receptor efficacy assay (cAMP, HEK293 cells); format: cell-based; as to pEC50: crude peptides with purity of less than 90%
T1 construct: expressed in transfected cells
Procedure: (§1) The 5′-end primers additionally encoded a near Kozak consensus sequence to ensure efficient translation.
(§2) 48 hr after transfection cells were seeded for limited dilution cloning and selected with 1 mg/ml G418 in the culture medium.
(§3) On the day of analysis, growth medium was removed and the cells washed once with 200 μl Tyrode buffer. Cells were incubated in 100 μl Tyrode buffer containing increasing concentrations of test peptides, 100 μM IBMX, and 6 mM glucose for up 15 min at 37° C. The reaction was stopped by addition of 25 μl 0.5 M HCl and incubated on ice for 60 min. The cAMP content was estimated using the FlashPlate® cAMP kit from Perkin-Elmer.

human Glucagon-R = target: T2, human Glucagon-R (Homo sapiens, UniProt P47871); experiment: Glucagon receptor efficacy assay (cAMP, HEK293 cells); format: cell-based; details: read-out: GLUR EC50; also: crude peptides with purity of less than 90%
T2 construct: expressed in transfected cells
T2 sequence (P47871 26-477): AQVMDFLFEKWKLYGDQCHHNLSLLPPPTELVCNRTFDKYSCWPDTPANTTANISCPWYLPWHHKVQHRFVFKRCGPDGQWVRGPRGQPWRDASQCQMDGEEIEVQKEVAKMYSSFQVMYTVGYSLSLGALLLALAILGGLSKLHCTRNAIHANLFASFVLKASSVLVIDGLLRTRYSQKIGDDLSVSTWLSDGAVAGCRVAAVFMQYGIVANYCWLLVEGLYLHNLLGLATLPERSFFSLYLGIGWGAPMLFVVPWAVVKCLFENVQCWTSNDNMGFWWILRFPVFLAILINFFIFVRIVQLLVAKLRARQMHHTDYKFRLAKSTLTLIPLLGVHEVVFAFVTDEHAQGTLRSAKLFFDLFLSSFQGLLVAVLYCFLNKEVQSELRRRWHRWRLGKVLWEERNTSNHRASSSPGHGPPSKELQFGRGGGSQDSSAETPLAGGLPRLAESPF
Procedure: as §1, §2, §3

primary rat adipocytes = format: cell-based
Procedure: Adipocytes were isolated from epididymal fat dissected from normal young adult Sprague-Dawley rats. The fat lumps were minced, incubated and shaken (220 rpm) with collagenase (1 mg/ml) in Krebs-Ringer buffer containing 4% BSA (KRB-BSA) for 60 minutes at 37° C. The suspension was filtered through a nylon filter (160 μm pore size) and the filtrate centrifuged at 200×g for 3 min. The subjacent medium beneath the upper floating layer of adipocytes was removed with a Pasteur-pipette. The adipocytes were washed 3 times in KRB-BSA buffer by re-suspension and centrifugation. The adipocytes were re-suspended in KRB-BSA, mixed, incubated in and shaken with test compounds in 96-deep well plates (50,000 cells/well) in a total volume of 1 ml at 37° C. for 60 min. The plates were placed on ice for at least 10 min after incubation followed by centrifugation at 200×g for 3 min. 300 μl of the buffer beneath the adipocyte layer were collected in a 96-deep well plate. This process was repeated two more times and the 3 extracts collected from each culture pooled together.

db/db mice = experiment: Oral glucose tolerance test (OGTT) in db/db mice; format: in vivo; details: i.p., 45 nmol/kg
Procedure: The animals were kept fasted during the experiment to prevent confounding food intake. Fifteen minutes later an oral dose of glucose (1 g/kg in 5 ml/kg) was given and BG levels were measured at t=30 min, t=60 min, t=120 min and t=240 min.
Difference from baseline (t=0) was calculated for each time point and AUC0-240 min values were determined. Statistical analyses of AUC values by one-way ANOVA and Dunnetts post-hoc analyses were performed with GraphPad Prism version 4. Differences were considered significant at the p<0.05 level.

C57Bl/6 mice = experiment: Food intake in normal mice; format: in vivo; details: fasted mice, s.c.; PYY3-36 30 nmol/kg, glucagon 500 nmol/kg, ZP2663 500 nmol/kg
Procedure: One week before study C57Bl/6 mice (8 weeks) (N=9-12 animals in each group) were conditioned to treatment by daily injections (s.c.) of 0.2 ml vehicle and acclimatized to handling by weighing them twice a week. Mice were stratified one day before start of experiment into groups with similar body weight (BW). […] After one hour pre-weighed food was introduced to the mice and food intake measured by weighing the remaining food after one hour and expressed relative to body weight (mg food/g BW). Statistical analyses of food intake data by one-way ANOVA and Dunnetts post-hoc analyses were performed with GraphPad Prism version 4. Differences were considered significant at the 0.05 level.

[1] = system: diet induced obese (DIO) mice; experiment: 28 day treatment of diet induced obese (DIO) mice: body weight and plasma cholesterols; format: in vivo
Procedure: Four weeks before drug treatments, C57Bl/6 male mice (7 weeks) (N=9-12 animals in each group) were put on high fat diet (HFD) and their day-night cycle reversed with lights On/Off at 2000/0800 hour. Experimental animals were conditioned to treatment by daily injections (s.c.) of 0.1 ml vehicle and acclimatized to handling by weighing them twice a week one week before start of drug administrations. […] Animals were fasted overnight before sacrifice. An eye blood sample (0.6 ml EDTA) was obtained the following morning immediately before cervical dislocation. Blood plasma samples were stored at −80° C. until analyzed for cholesterol, HDL and LDL using commercially available kits. Body weight gain throughout the treatment period was calculated for each animal by subtracting its weight at the initiation of treatment.
The effects of treatment on body weight gain and cholesterols were assessed by 2-way ANOVA with repeated measures and Bonferoni post-hoc analyses, using GraphPad Prism version 4. Differences were considered significant at the 0.05 level.

T1 sequence (P43220 24-463): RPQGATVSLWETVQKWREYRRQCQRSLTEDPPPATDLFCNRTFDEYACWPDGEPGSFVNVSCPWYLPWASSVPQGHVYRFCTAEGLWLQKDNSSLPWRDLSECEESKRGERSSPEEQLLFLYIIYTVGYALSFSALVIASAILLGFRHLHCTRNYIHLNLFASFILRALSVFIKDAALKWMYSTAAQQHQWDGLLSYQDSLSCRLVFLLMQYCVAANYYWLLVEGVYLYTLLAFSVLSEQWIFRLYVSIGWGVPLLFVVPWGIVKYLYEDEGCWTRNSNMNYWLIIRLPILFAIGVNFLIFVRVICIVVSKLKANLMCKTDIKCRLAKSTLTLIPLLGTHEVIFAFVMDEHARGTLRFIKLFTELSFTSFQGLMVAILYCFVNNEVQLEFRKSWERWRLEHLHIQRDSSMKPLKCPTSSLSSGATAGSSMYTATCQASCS

| Compound | pEC50 (human GLP-1-R) | pEC50 (human Glucagon-R) | other results |
| --- | --- | --- | --- |
| CC[C@H](C)[C@H](NC(=O)[C@H](Cc1ccccc1)NC(=O)[C@H](CC(=O)O)NC(=O)[C@H](CCCCN)NC(=O)[C@H](C)NC(=O)[C@H](CCCNC(=N)N)NC(=O)[C@H](CCCNC(=N)N)NC(=O)[C@H](CCC(=O)O)NC(=O)[C@H](CC(=O)O)NC(=O)[C@H](CC(C)C)NC(=O)[C@H](Cc1ccc(O)cc1)NC(=O)[C@H](CCCCN)NC(=O)[C@H](CO)NC(=O)[C@H](Cc1ccc(O)cc1)NC(=O)[C@H](CC(=O)O)NC(=O)[C@H](CO)NC(=O)[C@@H](NC(=O)[C@H](Cc1ccccc1)NC(=O)[C@@H](NC(=O)CNC(=O)[C@H](CCC(N)=O)NC(=O)[C@H](CO)NC(=O)[C@@H](N)Cc1c[nH]cn1)[C@@H](C)O)[C@@H](C)O)C(=O)N[C@@H](CCC(=O)O)C(=O)N[C@@H](Cc1c[nH]c2ccccc12)C(=O)N[C@@H](CC(C)C)C(=O)N[C@@H](CC(C)C)C(=O)N[C@@H](CO)C(=O)N[C@@H](C)C(N)=O [ZP2663] |  |  | pEC50 (primary rat adipocytes): 8.36; effect on lipolysis in primary adipocyte cultures (in words) (primary rat adipocytes): equipotent with glucagon; improvement of glucose tolerance (db/db mice): 64.9%; glucose tolerance during OGTT (in words) (db/db mice; AUC0-240 min): significantly improved glucose tolerance; food intake during the first hour (in words) (C57Bl/6 mice): significantly decreased food intake; body weight gain (in words) ([1]; 500 nmol/kg b.i.d. s.c., 28 days): decreased body weight gain to a level similar to that observed with chow feeding; blood concentration of LDL cholesterol vs vehicle (in words) ([1]; 4 weeks b.i.d.): statistically significantly different from the vehicle group; fat deposition (in words) ([1]; 4 weeks treatment): significantly decreased fat deposition |
| Exendin-4 |  |  | GLP-1R agonist activity (in words) (human GLP-1-R): very potent GLP-1R agonist; EC50, stimulation of lipolysis in primary rat adipocyte cultures (primary rat adipocytes; 60 min, glycerol formed): No effect |
| H-HSQGTFTSDYSKYLDDRRARDFIDWLLSA-NH2 [Compound L006-0093] | 10.15 | 10.00 |  |
| H-HSQGTFTSDYSKYLDERAAKDFIEWLLSA-NH2 [Compound L006-0108] | 9.28 | 9.09 |  |
| H-HSQGTFTSDYSKYLDERRAKDFIDWLLSA-NH2 [Compound L006-0129] | 9.70 | 9.62 |  |
| H-HSQGTFTSDYSKYLDERRAKDFIEWLLAA-NH2 [Compound L006-0136] | 9.66 | 9.48 |  |
| H-HSQGTFTSDYSKYLDERRAKDFIQWLLSA-NH2 [Compound L006-0084] | 10.15 | 9.89 |  |
| H-HSQGTFTSDYSKYLDERRAQDFIEWLLSA-NH2 [Compound L006-0082] | 10.05 |  |  |
| H-HSQGTFTSDYSKYLDSRRAKDFIEWLLSA-NH2 [Compound L006-0081] | 9.85 | 9.64 |  |
| PYY(3-36): internal positive control for food intake (anorectic peptide) [reference compound] |  |  | food intake during the first hour (in words) (C57Bl/6 mice): anorectic effect |

More lines, main results first:

| pEC50 (human GLP-1-R) | pEC50 (human Glucagon-R) | Compound | other results |
| --- | --- | --- | --- |
| 9.82 | 9.66 | CC[C@H](C)[C@H](NC(=O)[C@H](Cc1ccccc1)NC(=O)[C@H](CC(=O)O)NC(=O)[C@H](CCC(N)=O)NC(=O)[C@H](C)NC(=O)[C@H](CCCNC(=N)N)NC(=O)[C@H](CCCNC(=N)N)NC(=O)[C@H](CO)NC(=O)[C@H](CC(=O)O)NC(=O)[C@H](CC(C)C)NC(=O)[C@H](Cc1ccc(O)cc1)NC(=O)[C@H](CCCCN)NC(=O)[C@H](CO)NC(=O)[C@H](Cc1ccc(O)cc1)NC(=O)[C@H](CC(=O)O)NC(=O)[C@H](CO)NC(=O)[C@@H](NC(=O)[C@H](Cc1ccccc1)NC(=O)[C@@H](NC(=O)CNC(=O)[C@H](CCC(N)=O)NC(=O)[C@H](CO)NC(=O)[C@@H](N)Cc1c[nH]cn1)[C@@H](C)O)[C@@H](C)O)C(=O)N[C@@H](CCC(=O)O)C(=O)N[C@@H](Cc1c[nH]c2ccccc12)C(=O)N[C@@H](CC(C)C)C(=O)N[C@@H](CC(C)C)C(=O)N[C@@H](CO)C(=O)N[C@@H](C)C(N)=O [Compound L006-0090] |  |
| 9.54 | 9.42 | H-HSQGTFTSDYSKYLDERRAKDFIEWLLRA-NH2 [Compound L006-0138] |  |
| 9.80 | 9.66 | H-HSQGTFTSDYSKYLDERRAKDFIRWLLSA-NH2 [Compound L006-0128] |  |
| 9.80 | 9.60 | H-HSQGTFTSDYSKYLDKRRAEDFIKWLLSA-NH2 [Compound L006-0094] |  |
